SMILES strings stand for the structures. ≈ marks a conversion by molar mass, not a printed value.

The conditions of this data set: buffer; pH 7.4; 200.0 µM.
One may read the kinetic solubility as the concentration staying in solution when a stock, usually in DMSO, is diluted into the medium. The molecule `CCN(CC)C(=O)COC(=O)C1=NN(c2cc(C)ccc2C)C(=O)CC1` had a kinetic solubility greater than 53.9 µg/mL.
The result for `O=C(Nc1ccc(N2CCOCC2)cc1)c1cccc2ccccc12` reads 2.7 µg/mL (≈ 8.12 µM); that for `CCOc1ccc(C(=O)NC(C)CCc2ccccc2)cc1` (stereo unspecified), 2.5 µg/mL (≈ 8.41 µM).
In turn, `Cc1cnc(NC(=O)Cc2ccc(S(=O)(=O)N3CCOCC3)s2)s1` came in with a solubility (kinetic) of 19.7 µg/mL (≈ 50.8 µM).
The result for `CCOC(=O)C1CCCN(c2c(NCCC(C)C)c(=O)c2=O)C1` (stereo unspecified) reads 44.5 µg/mL (≈ 138 µM).
`COc1ccc(NC(=O)CCS(=O)(=O)c2ccc(Cl)cc2)cc1` displayed a solubility (kinetic) of 18.4 µg/mL (≈ 52 µM).
The result for `O=C(Nc1ccc(N2CCN(C(=O)c3cccs3)CC2)cc1)c1ccco1` reads 1.6 µg/mL (≈ 4.19 µM).
The result for `CC(=O)OCc1ccccc1Sc1ccccc1C(=O)NCc1ccccc1` reads 21.1 µg/mL (≈ 53.9 µM); that for `CSc1sc(C(=O)N(C)C)c2c1S(=O)(=O)N(C)c1ccccc1-2`, greater than 55.3 µg/mL.
As to `Cc1ccc(SCC(=O)NCc2ccccc2C)cc1`, the solubility (kinetic) stood at 35.7 µg/mL (≈ 125 µM).
In the case of `Cc1ccc(NC(=S)NC(=O)C2CCCC2)c(Br)c1`, the solubility (kinetic) stood at 4.2 µg/mL (≈ 12.3 µM). Against the preceding molecule, the solubility kinetic is about 8.5-fold lower.
The result for `C=CCSc1nsc(NC(=O)Nc2cccc(C(C)=O)c2)n1` reads 1.9 µg/mL (≈ 5.68 µM); that for `O=C(Nc1ccc(F)cc1)NC1CCCCCCC1`, 1.6 µg/mL (≈ 6.05 µM).
`CCOC(=O)c1nc2ccccc2c(C)c1C.Cl` displayed a kinetic solubility of 25.3 µg/mL.
In turn, `Cc1ccc(NC(=O)NC2CCCCCCC2)cc1` showed a kinetic solubility of less than 0.3 µg/mL.
For the molecule `CCOc1ccccc1NC(=O)c1ccccc1N(C)S(=O)(=O)c1ccc(C)cc1`, the kinetic solubility came to 3.2 µg/mL (≈ 7.54 µM).
Take `Cc1c(C(=O)N2CCN(C)CC2)oc2ccc(Br)cc12`: the solubility (kinetic) was greater than 50.6 µg/mL.
For `COCCNC(=O)c1cc(C(=O)CC(C)C)c[nH]1`, the solubility (kinetic) is greater than 37.8 µg/mL.
`Cc1ccc(CNCCc2ccc(F)cc2)s1` came in with a solubility (kinetic) of 26.7 µg/mL (≈ 107 µM).
The result for `Cc1ccc(NC(=O)C(C)OC(=O)CCC2CCCCC2)cc1` (stereo unspecified) reads 4.1 µg/mL (≈ 12.9 µM); that for `CCc1cccc(NS(=O)(=O)c2cccc3cccnc23)c1`, 1 µg/mL (≈ 3.2 µM); that for `Nc1nc2ccccc2n1CCOc1ccc(Cl)cc1`, 25.8 µg/mL (≈ 89.7 µM).
With `CCS(=O)(=O)c1ccc(O)c(NC(=O)Nc2ccc(C(C)(C)C)cc2)c1`, the kinetic solubility stood at 0.8 µg/mL (≈ 2.12 µM).
For `CC(=O)N/C(=C\c1ccccc1)C(=O)OCc1ccc(C)cc1` the value was greater than 46.4 µg/mL.
Molecule `COc1ccccc1NC(=O)CCN1C(=O)c2ccccc2C1=O` returned a kinetic solubility greater than 48.7 µg/mL.
For `COc1ccccc1NS(=O)(=O)c1cc(NC(=O)c2cccnc2)ccc1N1CCCCC1` the value was 1.3 µg/mL (≈ 2.79 µM); for `O=C(Cc1csc(-c2ccccc2)n1)NCc1cccs1`, 15.6 µg/mL (≈ 49.6 µM).
`CCOc1ccc(Br)cc1S(=O)(=O)NC1=NCCCCC1` gave a solubility (kinetic) greater than 56.3 µg/mL.
The result for `Cc1ccc(C2(c3noc(CN4CCOCC4)n3)CCCC2)cc1` reads 41.3 µg/mL (≈ 126 µM); that for `CCC(=O)c1c(NC(CC)CO)cc(C)oc1=O` (stereo unspecified), greater than 38 µg/mL.
As to `O=C1CC(=O)N(c2ccccc2)C(=O)N1c1ccccc1`, the kinetic solubility is greater than 42 µg/mL.
The result for `COc1ccc(-c2cc(CS(=O)(=O)c3ccccc3)on2)cc1` reads 0.7 µg/mL (≈ 2.13 µM); that for `CCCc1cc(=O)[nH]c(SCC(=O)Nc2ccc(C(=O)Nc3ccccc3OC)cc2)n1`, 6.7 µg/mL (≈ 14.8 µM).
For `CC(=O)Nc1cc(-c2nc3ccccc3o2)ccc1Cl` the value was 1.6 µg/mL (≈ 5.58 µM); for `COc1ccc(OCCC(=O)OCC(=O)c2ccc[nH]2)cc1`, greater than 45.5 µg/mL.
Consider `CCC(C)C(Nc1ncnc2scc(-c3ccccc3)c12)C(=O)O` (stereo unspecified), for which the solubility (kinetic) was greater than 51.2 µg/mL.
Consider `COc1cc(C(=O)NCCNC(=O)c2cnccn2)cc(OC)c1OC`, for which the kinetic solubility was 39.4 µg/mL (≈ 109 µM).
On to `CCn1cnc2cc(NCc3cccs3)ccc21`, for which the solubility (kinetic) is greater than 38.6 µg/mL.
The result for `O=C(c1ccc(Cl)cc1)N1CCc2c([nH]c3ccccc23)C1C(F)(F)F` (stereo unspecified) reads 1.4 µg/mL (≈ 3.7 µM); that for `C=CCNC(=O)N[C@@H](Cc1ccccc1)C(=O)OC`, greater than 39.3 µg/mL.
For `COc1cccc(CNc2ncc(-c3ccccc3)n2C)c1` the value was 32.9 µg/mL (≈ 112 µM); for `C=CCSc1nc(=O)n2ccc(C)cc2n1`, 31.7 µg/mL (≈ 136 µM).
As to `CCc1cccc(NC(=O)c2cc(OC)c(OC)c(OC)c2)c1`, the solubility (kinetic) was determined as 34.2 µg/mL (≈ 108 µM).
The result for `CCn1c(C)c(C(=O)Nc2ccc(OC)cc2)c2cc(OC)ccc21` reads 0.4 µg/mL (≈ 1.18 µM); that for `O=C(NCC1CCCO1)c1cccc(NC(=O)c2ccccc2)c1` (stereo unspecified), greater than 48.7 µg/mL.
For `CCN(CC)S(=O)(=O)c1ccc(N2CC(C(=O)N3Cc4ccccc4CC3C(N)=O)CC2=O)cc1` (stereo unspecified) the value was greater than 74.8 µg/mL; for `COC(=O)c1ccc(Nc2ncnc3sccc23)cc1`, 1.8 µg/mL (≈ 6.31 µM).
In turn, `O=C(COC(=O)c1cc(S(=O)(=O)N2CCOCC2)ccc1F)Nc1ccc2c(c1)OCO2` came in with a solubility (kinetic) of 54.8 µg/mL (≈ 117 µM).
`CCOC(=O)c1ccc2[nH]c3c(c2c1)CCCC3` yielded a solubility (kinetic) of 5.5 µg/mL (≈ 22.6 µM). This solubility kinetic lies about 10-fold lower than the previous one.
`O=C(COc1ccccc1Cl)NCCNC(=O)c1cccnc1` registered a kinetic solubility greater than 50.1 µg/mL.
Consider `O=C1CSC(c2ccc([N+](=O)[O-])cc2)N1Cc1ccccc1` (stereo unspecified), for which the solubility (kinetic) came out at 32.5 µg/mL (≈ 103 µM).

These data come from PubChem BioAssay AID1996.
